Results as given in patent publication US8399684B2, “Sulfonamide-based organocatalysts and method for their use” (State of Oregon acting by and through the State Board of …, priority 2007, dated 2013).
Values after ≈ are worked out from the molar mass of the structure shown.

Key:
[1] = Solubility of catalysts screened in methylene chloride (dichloromethane); assay type: physicochemical
Source text: In order to explore the effects of solvent polarity, the solubility of certain catalysts in methylene chloride was screened. Disclosed catalysts typically have a solubility of at least 10 milligrams/milliliter in dichloromethane, and typically at least 50 milligrams/milliliter in dichloromethane.
The absence of a significant non-polar region to the molecule may be the origin of this poor solubility. […] Sulfonamides are ideal choices for proline mimetics as their pKa has been documented to nicely match that of proline.
Ester-based catalysts according to the present disclosure also have markedly better solubilities than previously known compounds.

[2] = Solubility of catalysts under the intramolecular Michael addition conditions; assay type: physicochemical; settings: chlorinated reaction solvent, incl. lower temperatures; compared with tetrazole 11 and sulfonamides 12-14
Source text: Proline sulfonamides were tried next as potential organocatalysts. While these ligands have shown promise in certain organocatalyzed reactions, they previously have proven problematic in facilitating Michael addition processes. Proline sulfonamides performed well, providing improved enantiomeric excess (e.e.) at room temperature (Entries 6-8). […] This sulfonamide 15 is readily accessible from the commercially available para-dodecylsulfonylchloride (16) and Cbz-protected proline 18 in 3 steps (Scheme 16).

Compound: CCCCCCCCCCCCc1ccc(S(=O)(=O)NC(=O)C2CCCN2)cc1 (centres unmarked) [Sulfonamide 15, N-(p-dodecylphenylsulfonyl)-2-Pyrrolidinecarboxamide]
- solubility in dichloromethane [1]: 300 mg/mL (≈ 710 mM)
- solubility (in words) [2]: greatly improved solubility properties
